Laboratory results: patent publication US5998488A, “Ophthalmic composition” (Lion Corporation, priority 1994, dated 1999)
Read-outs that look alike come from different tables or passages of the source.

Experiments:
[1] = assay type: physicochemical; settings: 6 months at 50° C.
Experimental: […] More specifically, solutions were prepared in accordance with the formulation shown in Experiment 1 while the amount of α-cyclodextrin mixed was in the range of 0.03 to 2%.

[2] = Benzalkonium chloride adsorption test (soft contact lens Seequence); assay type: physicochemical; settings: benzalkonium chloride 0.01%, 25° C., 24 hours
Experimental: (§1) A test was conducted to examine the inhibition of benzalkonium chloride adsorption to soft contact lenses. Solutions of the following formulation were prepared in a conventional manner as used in the preparation of eye drops.
(§2) The percent inhibition of benzalkonium chloride adsorption to commercially available soft contact lenses was determined by the following test.
(§3) Benzalkonium chloride adsorption test A 30-ml vial was charged with 10 ml of the solution and a soft contact lens was immersed therein. In a constant temperature tank at 25° C., the vial was shaken for 24 hours. After the contact lens was removed from the vial, the concentration of benzalkonium chloride in the solution was quantitatively determined by high performance liquid chromatography. A percent inhibition of adsorption was calculated according to the following formula.
(§4) As a control, the above procedure was repeated except that no contact lens was immersed.
(§5) Inhibition of adsorption (%)=(concentration of benzalkonium chloride in sample solution)/(concentration of benzalkonium chloride in control solution)×100
(§6) Note that Seequence, Nichicon Soft and Menicon Soft are trademarks of soft contact lenses commercially available from Bausch & Lomb, Nihon Contact K.K., and Menicon K.K., respectively.

[3] = system: Candida albicans (Candida); assay: Antimicrobial test (preservative effectiveness test, USP), Candida; assay type: cell-based; settings: benzalkonium chloride 0.01%
Experimental: (§7) The solutions of Experiment 1 were subject to an antimicrobial test.
(§8) Using bacteria Escherichia coli (E. coli), Pseudomonas aeruginosa (P. aeru), and Stapyrococcus aureus (S. aureus) and fungi Aspergillus nigar (A. nigar) and Candida albicans (Candida) as infectious microorganisms, a preservative effectiveness test was carried out according to the Pharmacopoeia of the United States.
(§9) ++: microorganisms died within 5 days
(§10) +: microorganisms died in 6-10 days
(§11) -:microorganisms died in 11-15 days or over 15 days

[4] = system: Pseudomonas aeruginosa (P. aeru); assay: Antimicrobial test (preservative effectiveness test, USP), P. aeru; assay type: cell-based; settings: benzalkonium chloride 0.01%
Experimental: as §7, §8, §9, §10, §11

[5] = system: Stapyrococcus aureus (S. aureus); assay: Antimicrobial test (preservative effectiveness test, USP), S. aureus; assay type: cell-based; settings: benzalkonium chloride 0.01%
Experimental: as §7, §8, §9, §10, §11

[6] = Benzalkonium chloride adsorption test (soft contact lenses, lens not given); assay type: physicochemical; settings: concentration of at least 0.03%
Experimental: as §2, §3, §4, §5
(§12) Solutions of the formulation shown in Table 7 were prepared to a total amount of 1,000 g in a conventional manner as used in the preparation of eye drops. Ophthalmic solutions of Examples 2 to 13 were obtained. The ophthalmic solutions were subject to the same tests as in Experiments 1 and 3. In the test of Experiment 3, the ophthalmic solutions were evaluated for antimicrobial activity according to the same criterion as before.

[7] = system: Escherichia coli (E. coli); assay: Antimicrobial test (preservative effectiveness test, USP), E. coli; assay type: cell-based; settings: benzalkonium chloride 0.01%
Experimental: as §7, §8, §9, §10, §11

[8] = system: E. coli, P. aeru, S. aureus, A. nigar, Candida; assay: Antimicrobial test (preservative effectiveness test, USP), microorganism type not specified; assay type: cell-based; settings: α-cyclodextrin 0.03% or more
Experimental: as §8, §9, §10, §11
Solutions were prepared in accordance with the formulation shown in Experiment 1 in a conventional manner as used in the preparation of eye drops while the amount of disodium ethylenediaminetetraacetate (EDTA-2Na) blended was in the range of 0.002 to 0.3%. The solutions were subject to the antimicrobial test of Experiment 3 and evaluated for antimicrobial activity according to the same criterion as above.
Solutions of the following formulation were prepared in a conventional manner as used in the preparation of eye drops.
The solutions were subject to the antimicrobial test of Experiment 3 and evaluated for antimicrobial activity according to the same criterion as above.
as §12, with “Ophthalmic solutions of Examples 2 to 13 were obtained.” left out

[9] = Benzalkonium chloride adsorption test (soft contact lens Nichicon Soft μ); assay type: physicochemical; settings: benzalkonium chloride 0.01%, 25° C., 24 hours
Experimental: as §1, §2, §3, §4, §5, §6

[10] = system: Aspergillus nigar (A. nigar); assay: Antimicrobial test (preservative effectiveness test, USP), A. nigar; assay type: cell-based; settings: benzalkonium chloride 0.01%
Experimental: as §7, §8, §9, §10, §11

[11] = Benzalkonium chloride adsorption test (soft contact lens Menicon Soft 72); assay type: physicochemical; settings: benzalkonium chloride 0.01%, 25° C., 24 hours
Experimental: as §1, §2, §3, §4, §5, §6

In the case of OC[C@H]1O[C@@H]2O[C@H]3[C@H](O)[C@@H](O)[C@@H](O[C@H]4[C@H](O)[C@@H](O)[C@@H](O[C@H]5[C@H](O)[C@@H](O)[C@@H](O[C@H]6[C@H](O)[C@@H](O)[C@@H](O[C@H]7[C@H](O)[C@@H](O)[C@@H](O[C@H]1[C@H](O)[C@H]2O)O[C@@H]7CO)O[C@@H]6CO)O[C@@H]5CO)O[C@@H]4CO)O[C@@H]3CO [α-cyclodextrin], the Stability ([1]; α-cyclodextrin 0.03%) is reported as “.largecircle”, the Stability ([1]; α-cyclodextrin 0.5%) is reported as “.largecircle” and the Stability ([1]; α-cyclodextrin 1%) is reported as “Δ”. The Inhibition of adsorption ([2]; α-cyclodextrin 0.01%) was 88%, the Inhibition of adsorption ([2]; α-cyclodextrin 0.02%) was 92% and the Inhibition of adsorption ([2]; α-cyclodextrin 0.03%) was 100%. The Inhibition of adsorption ([2]; α-cyclodextrin 0.05%) was 100%, the Inhibition of adsorption ([2]; α-cyclodextrin 0.1%) was 100% and the Inhibition of adsorption ([2]; α-cyclodextrin 0.2%) was 100%. The Inhibition of adsorption ([2]; α-cyclodextrin 0.3%) was 100%, the Antimicrobial activity ([3]; α-cyclodextrin 0.01%) was “+ (microorganisms died in 6-10 days)” and the Antimicrobial activity ([3]; α-cyclodextrin 0.02%) was “+ (microorganisms died in 6-10 days)”. The Antimicrobial activity ([3]; α-cyclodextrin 0.03%) was “- (microorganisms died in 11-15 days or over 15 days)”, the Antimicrobial activity ([3]; α-cyclodextrin 0.05%) was “- (microorganisms died in 11-15 days or over 15 days)” and the Antimicrobial activity ([3]; α-cyclodextrin 0.1%) was “- (microorganisms died in 11-15 days or over 15 days)”. The Antimicrobial activity ([3]; α-cyclodextrin 0.2%) was “- (microorganisms died in 11-15 days or over 15 days)”, the Antimicrobial activity ([3]; α-cyclodextrin 0.3%) was “- (microorganisms died in 11-15 days or over 15 days)” and the Antimicrobial activity ([4]; α-cyclodextrin 0.01%) was “+ (microorganisms died in 6-10 days)”. The Antimicrobial activity ([4]; α-cyclodextrin 0.02%) was “+ (microorganisms died in 6-10 days)”, the Antimicrobial activity ([4]; α-cyclodextrin 0.03%) was “- (microorganisms died in 11-15 days or over 15 days)” and the Antimicrobial activity ([4]; α-cyclodextrin 0.05%) was “- (microorganisms died in 11-15 days or over 15 days)”. The Antimicrobial activity ([4]; α-cyclodextrin 0.1%) was “- (microorganisms died in 11-15 days or over 15 days)”, the Antimicrobial activity ([4]; α-cyclodextrin 0.2%) was “- (microorganisms died in 11-15 days or over 15 days)” and the Antimicrobial activity ([4]; α-cyclodextrin 0.3%) was “- (microorganisms died in 11-15 days or over 15 days)”. The Antimicrobial activity ([5]; α-cyclodextrin 0.01%) was “+ (microorganisms died in 6-10 days)”, the Antimicrobial activity ([5]; α-cyclodextrin 0.02%) was “+ (microorganisms died in 6-10 days)” and the Antimicrobial activity ([5]; α-cyclodextrin 0.03%) was “- (microorganisms died in 11-15 days or over 15 days)”. For the same compound, the Antimicrobial activity ([5]; α-cyclodextrin 0.05%) was “- (microorganisms died in 11-15 days or over 15 days)”, the Antimicrobial activity ([5]; α-cyclodextrin 0.1%) was “- (microorganisms died in 11-15 days or over 15 days)” and the Antimicrobial activity ([5]; α-cyclodextrin 0.2%) was “- (microorganisms died in 11-15 days or over 15 days)”. The Antimicrobial activity ([5]; α-cyclodextrin 0.3%) was “- (microorganisms died in 11-15 days or over 15 days)”, the “Inhibition of adsorption of benzalkonium chloride to soft contact lenses (in words)” value [6] was “The inhibition effect is remarkable” and the Antimicrobial activity ([7]; α-cyclodextrin 0.01%) was “+ (microorganisms died in 6-10 days)”. The Antimicrobial activity ([7]; α-cyclodextrin 0.02%) was “+ (microorganisms died in 6-10 days)”, the Antimicrobial activity ([7]; α-cyclodextrin 0.03%) was “- (microorganisms died in 11-15 days or over 15 days)” and the Antimicrobial activity ([7]; α-cyclodextrin 0.05%) was “- (microorganisms died in 11-15 days or over 15 days)”. The Antimicrobial activity ([7]; α-cyclodextrin 0.1%) was “- (microorganisms died in 11-15 days or over 15 days)”, the Antimicrobial activity ([7]; α-cyclodextrin 0.2%) was “- (microorganisms died in 11-15 days or over 15 days)” and the Antimicrobial activity ([7]; α-cyclodextrin 0.3%) was “- (microorganisms died in 11-15 days or over 15 days)”. For the same compound, the “Antimicrobial activity of solution containing benzalkonium chloride (in words)” value [8] was “significantly reduced in antimicrobial activity”, the Inhibition of adsorption ([9]; α-cyclodextrin 0.01%) was 87% and the Inhibition of adsorption ([9]; α-cyclodextrin 0.02%) was 93%. For the same compound, the Inhibition of adsorption ([9]; α-cyclodextrin 0.03%) was 100%, the Inhibition of adsorption ([9]; α-cyclodextrin 0.05%) was 100% and the Inhibition of adsorption ([9]; α-cyclodextrin 0.1%) was 100%. The Inhibition of adsorption ([9]; α-cyclodextrin 0.2%) was 100%, the Inhibition of adsorption ([9]; α-cyclodextrin 0.3%) was 100% and the Antimicrobial activity ([10]; α-cyclodextrin 0.01%) was “+ (microorganisms died in 6-10 days)”. The Antimicrobial activity ([10]; α-cyclodextrin 0.02%) was “+ (microorganisms died in 6-10 days)”, the Antimicrobial activity ([10]; α-cyclodextrin 0.03%) was “- (microorganisms died in 11-15 days or over 15 days)” and the Antimicrobial activity ([10]; α-cyclodextrin 0.05%) was “- (microorganisms died in 11-15 days or over 15 days)”. For the same compound, the Antimicrobial activity ([10]; α-cyclodextrin 0.1%) was “- (microorganisms died in 11-15 days or over 15 days)”, the Antimicrobial activity ([10]; α-cyclodextrin 0.2%) was “- (microorganisms died in 11-15 days or over 15 days)” and the Antimicrobial activity ([10]; α-cyclodextrin 0.3%) was “- (microorganisms died in 11-15 days or over 15 days)”. For the same compound, the Inhibition of adsorption ([11]; α-cyclodextrin 0.01%) was 88%, the Inhibition of adsorption ([11]; α-cyclodextrin 0.02%) was 92% and the Inhibition of adsorption ([11]; α-cyclodextrin 0.03%) was 100%. It also gave an Inhibition of adsorption ([11]; α-cyclodextrin 0.05%) of 100%, an Inhibition of adsorption ([11]; α-cyclodextrin 0.1%) of 100% and an Inhibition of adsorption ([11]; α-cyclodextrin 0.2%) of 100%. It also gave an Inhibition of adsorption ([11]; α-cyclodextrin 0.3%) of 100%.
